Reference: patent US20100022483A1, “Substituted Tetracycline Compounds” (Paratek Pharmaceuticals, Inc., priority 2008, published 2010)
Values after ≈ are worked out from the molar mass of the structure shown. Like-named read-outs stand apart in the source and are kept apart here.

Columns and labels:
gram negative bacteria = experiment: In vitro anti-bacterial activity assay (broth dilution MIC), gram negative bacteria; format: cell-based, E. coli
From the text: (§1) Bacterial infections may be caused by a wide variety of gram positive and gram negative bacteria. Some of the compounds of the invention are useful as antibiotics against organisms which are resistant and/or sensitive to other tetracycline compounds. The antibiotic activity of the tetracycline compounds of the invention may by using the in vitro standard broth dilution method described in Waitz, J. A., CLSI, Document M7-A2, vol. 10, no. 8, pp. 13-20, 2nd edition, Villanova, Pa. (1990).
(§2) The following assay was used to determine the efficacy of the tetracycline compounds against gram positive and gram negative bacteria. 2 mg of each compound was dissolved in 100 μl of DMSO. […] The tetracycline compound solutions were diluted to 50 μL volumes, with a test compound concentration of 0.098 μg/ml. Optical density (OD) determinations were made from fresh log-phase broth cultures of the test strains. Dilutions were made to achieve a final cell density of […] CFU/ml. At OD=1, cell densities for different genera were approximately:
(§3) 50 μl of the cell suspensions were added to each well of microtiter plates. The final cell density was approximately 5×10^5 CFU/ml. These plates were incubated at 35° C. in an ambient air incubator for approximately 18 hours. The plates were read with a microplate reader and were visually inspected when necessary. The MIC was defined as the lowest concentration of the tetracycline compound that inhibits growth. Table 3 includes MIC data for several substituted tetracycline compounds.

3T3 fibroblast cells = experiment: In vitro phototoxicity assay (neutral red; UV light-treated vs dark control plates); format: cell-based; details: for Photo Toxicity UV Tox50: UV light 50 minutes; for Photo Toxicity Dark Tox50: dark control plate
Protocol: 3T3 fibroblast cells were harvested and plated at a concentration of 1×10^5 cells/mL and the plates were incubated overnight at 37° C., in 5% CO2 and approximately 95% humidity. On the following day the medium was removed from the plates and replaced with Hanks' Balanced Salt Solution (HBSS). Compound dilutions were made in HBSS and added to the plates. For each compound tested, a duplicate plate was prepared that was not exposed to light as a control for compound toxicity. Plates were then incubated in a dark drawer (for controls), or under UV light (meter reading of 1.6-1.8 mW/cm^2) for 50 minutes. Cells were then washed with HBSS, fresh medium was added, and plates were incubated overnight as described above. The following day neutral red was added as an indicator of cell viability. The plates were then incubated for an additional 3 hours. Cells were then washed with HBSS and blotted on absorbent paper to remove excess liquid. A solution of 50% EtOH, 10% glacial acetic acid was added and after 20 minutes incubation the plate's absorbance at 535 nm was read using a Wallac Victor 5 spectrophotometer. The phototoxicity reflected the difference between the light-treated and control cultures. Table 3 includes phototoxicity (μM) data for several substituted tetracycline compounds.

gram positive bacteria = experiment: In vitro anti-bacterial activity assay (broth dilution MIC), gram positive bacteria; format: cell-based, S. aureus; details: 18 h
From the text: as §1, §2, §3

in vitro = format: cell-based; details: Chinese hamster, Cytotox. CHO-K1
Protocol: (§4) COS-1 and CHO-K1 cell suspensions were prepared, seeded into 96-well tissue culture treated black-walled microtiter plates (density determined by cell line), and incubated overnight at 37° C., in 5% CO2 and approximately 95% humidity. The following day, serial dilutions of compound were prepared under sterile conditions and transferred to cell plates. Cell/Compound plates were incubated under the above conditions for 24 hours. Following the incubation period, media/compound was aspirated and 50 μl of resazurin (0.042 mg/ml in PBS w/Ca and Mg) is added. The plates were then incubated under the above conditions for 2 hours and then placed in the dark at room temperature for an additional 30 minutes. Fluorescence measurements were taken (excitation 535 nm, emission 590 nm). The IC50 (concentration of compound causing 50% growth inhibition) was then calculated. Table 3 includes IC50 data for several substituted tetracycline compounds.

[1] = Mammalian cytotoxicity assay (resazurin), COS-1 cells; format: cell-based; details: African green monkey, read-out: Cytotox. COS-1
Protocol: as §4

[2] = Escherichia coli, 18 h, E. coli D1 209, read-out: Median MIC's G− E. coli D1 209
[3] = Escherichia coli, 18 h, E. coli MG 1655, read-out: Median MIC's G− E. coli MG 1655
[4] = Escherichia coli, ATCC25922, 18 h, E. coli ATCC 25922, read-out: Median MIC's G− E. coli ATCC 25922
[5] = Pseudomonas aeruginosa, 18 h, P. aeruginosa K201 PAO6609, read-out: Median MIC's G− P. aeruginosa K201 PAO6609
[6] = Staphylococcus aureus, S. aureus MRSA5, read-out: Median MIC's G+ S. aureus MRSA5
[7] = Staphylococcus aureus, S. aureus RN450, read-out: Median MIC's G+ S. aureus RN450
[8] = Streptococcus pneumoniae, S. pneumoniae 157E-Strep, read-out: Median MIC's G+ S. pneumoniae 157E-Strep

SMILES | MIC (gram negative bacteria; [2]) [µg/mL] | MIC (gram negative bacteria; [3]) [µg/mL] | MIC (gram negative bacteria; [4]) [µg/mL] | MIC (gram negative bacteria; [5]) [µg/mL] | Photo Toxicity UV Tox50 (3T3 fibroblast cells) | Photo Toxicity Dark Tox50 (3T3 fibroblast cells) | MIC (gram positive bacteria; [6]) [µg/mL] | MIC (gram positive bacteria; [7]) [µg/mL] | MIC (gram positive bacteria; [8]) [µg/mL] | IC50 at 24 h (in vitro) [µM] | IC50 at 24 h [1] [µM]
CN(C)[C@@H]1C(O)=C(C(N)=O)C(=O)[C@@]2(O)C(O)=C3C(=O)c4c(O)ccc(C(=O)CNCc5ccco5)c4C[C@H]3C[C@@H]12 [CC] | 64 (≈ 116 µM) | 32 (≈ 58 µM) | 32 (≈ 58 µM) | 64 (≈ 116 µM) | >144.12 µM | >144.12 µM | 16 (≈ 29 µM) | 1 (≈ 1.81 µM) | 2 (≈ 3.63 µM) | > 44.7 | > 44.7
CN(C)c1cc(-c2cccc(C(N)=O)c2)c(O)c2c1C[C@H]1C[C@H]3[C@H](N(C)C)C(O)=C(C(N)=O)C(=O)[C@@]3(O)C(O)=C1C2=O [CD] | 64 (≈ 111 µM) | 64 (≈ 111 µM) | 64 (≈ 111 µM) | 64 (≈ 111 µM) | >146.26 µM | >146.26 µM | 32 (≈ 55.5 µM) | 8 (≈ 13.9 µM) | 16 (≈ 27.7 µM) | > 45.3 | > 45.3
CN(C)[C@@H]1C(O)=C(C(N)=O)C(=O)[C@@]2(O)C(O)=C3C(=O)c4c(O)ccc(C(=O)CNc5cccnc5)c4C[C@H]3C[C@@H]12 [CB] | 64 (≈ 117 µM) | 64 (≈ 117 µM) | 64 (≈ 117 µM) | 64 (≈ 117 µM) | >152.86 µM | >152.86 µM | 64 (≈ 117 µM) | 16 (≈ 29.2 µM) | 32 (≈ 58.3 µM) | 110 | > 153
CN(C)CCNCc1ccc(-c2ccc(O)c3c2C[C@H]2C[C@H]4[C@H](N(C)C)C(O)=C(C(N)=O)C(=O)[C@@]4(O)C(O)=C2C3=O)o1 [CY] | 64 (≈ 110 µM) | 2 (≈ 3.44 µM) | 4 (≈ 6.89 µM) | 64 (≈ 110 µM) | >142.02 µM | >142.02 µM | 64 (≈ 110 µM) | 0.25 (≈ 0.431 µM) | 0.06 (≈ 0.103 µM) | > 142 | > 142
CN(CCOC(C)(C)C)Cc1cccc(-c2ccc(O)c3c2C[C@H]2C[C@H]4[C@H](N(C)C)C(O)=C(C(N)=O)C(=O)[C@@]4(O)C(O)=C2C3=O)c1 [BM] | 4 (≈ 6.31 µM) | 8 (≈ 12.6 µM) | 4 (≈ 6.31 µM) | 64 (≈ 101 µM) | 5.93 µM | >104.43 µM | 2 (≈ 3.16 µM) | 0.13 (≈ 0.205 µM) | 0.06 (≈ 0.0947 µM) | 21.6 | 22.8
CN(C)CCc1ccc(O)c2c1C[C@H]1C[C@H]3[C@H](N(C)C)C(O)=C(C(N)=O)C(=O)[C@@]3(O)C(O)=C1C2=O [BD] | 64 (≈ 132 µM) | 4 (≈ 8.24 µM) | 4 (≈ 8.24 µM) | 64 (≈ 132 µM) | M: >120.91 uM | M: >120.91 uM | 32 (≈ 65.9 µM) | 0.5 (≈ 1.03 µM) | 0.13 (≈ 0.268 µM) | > 121 | > 121
CN(C)CCNC(=O)c1ccc(-c2ccc(O)c3c2C[C@H]2C[C@H]4[C@H](N(C)C)C(O)=C(C(N)=O)C(=O)[C@@]4(O)C(O)=C2C3=O)cc1 [AD] | 64 (≈ 106 µM) | 8 (≈ 13.2 µM) | 16 (≈ 26.5 µM) | 64 (≈ 106 µM) | 135.17 µM | >140.2 µM | 16 (≈ 26.5 µM) | 0.25 (≈ 0.413 µM) | 0.13 (≈ 0.215 µM) | > 43.5 | > 43.5
CN(C)CCCCNCc1cccc(-c2ccc(O)c3c2C[C@H]2C[C@H]4[C@H](N(C)C)C(O)=C(C(N)=O)C(=O)[C@@]4(O)C(O)=C2C3=O)c1 [CV] | 64 (≈ 103 µM) | 64 (≈ 103 µM) | 64 (≈ 103 µM) | 64 (≈ 103 µM) | >134.59 µM | >134.59 µM | 32 (≈ 51.7 µM) | 2 (≈ 3.23 µM) | 4 (≈ 6.46 µM) | > 135 | > 135
CC(C)N(CCNC(=O)c1cccc(-c2ccc(O)c3c2C[C@H]2C[C@H]4[C@H](N(C)C)C(O)=C(C(N)=O)C(=O)[C@@]4(O)C(O)=C2C3=O)c1)C(C)C [T] | 8 (≈ 12.1 µM) | 16 (≈ 24.2 µM) | 4 (≈ 6.05 µM) | 64 (≈ 96.9 µM) | >133.57 µM | >133.57 µM | 4 (≈ 6.05 µM) | 0.13 (≈ 0.197 µM) | 0.06 (≈ 0.0908 µM) | 36.2 | > 41.4
CN(C)CCCNC(=O)c1cccc(-c2ccc(O)c3c2C[C@H]2C[C@H]4[C@@H](N(C)C)C(O)=C(C(N)=O)C(=O)[C@@]4(O)C(O)=C2C3=O)c1 [P] | 64 (≈ 103 µM) | 64 (≈ 103 µM) | 64 (≈ 103 µM) | 64 (≈ 103 µM) | >122.9 µM | >122.9 µM | 64 (≈ 103 µM) | 4 (≈ 6.47 µM) | 8 (≈ 12.9 µM) | > 123 | > 123
CN(C)[C@@H]1C(O)=C(C(N)=O)C(=O)[C@@]2(O)C(O)=C3C(=O)c4c(O)ccc(-c5cccc(CCCO)c5)c4C[C@H]3C[C@@H]12 [CM] | 64 (≈ 117 µM) | 64 (≈ 117 µM) | 64 (≈ 117 µM) | 64 (≈ 117 µM) | >167.5 µM | >167.5 µM | 0.5 (≈ 0.911 µM) | 0.0625 (≈ 0.114 µM) | 0.06 (≈ 0.109 µM) | 14.1 | 15.1
CN(C)[C@@H]1C(O)=C(C(N)=O)C(=O)[C@@]2(O)C(O)=C3C(=O)c4c(O)ccc(-c5cccc(C(N)=O)c5)c4C[C@H]3C[C@@H]12 [AE] | 64 (≈ 120 µM) | 4 (≈ 7.5 µM) | 4 (≈ 7.5 µM) | 64 (≈ 120 µM) | >156.64 µM | >156.64 µM | 4 (≈ 7.5 µM) | 0.06 (≈ 0.112 µM) | 0.06 (≈ 0.112 µM) | > 15.7 | > 15.7
CNCCNC(=O)c1cccc(-c2ccc(O)c3c2C[C@H]2C[C@H]4[C@H](N(C)C)C(O)=C(C(N)=O)C(=O)[C@@]4(O)C(O)=C2C3=O)c1 [M] | 64 (≈ 108 µM) | 64 (≈ 108 µM) | 64 (≈ 108 µM) | 64 (≈ 108 µM) | >143.16 µM | >143.16 µM | 64 (≈ 108 µM) | 4 (≈ 6.77 µM) | 32 (≈ 54.2 µM) | > 143 | > 143
COCCNC(=O)c1cccc(-c2ccc(O)c3c2C[C@H]2C[C@H]4[C@H](N(C)C)C(O)=C(C(N)=O)C(=O)[C@@]4(O)C(O)=C2C3=O)c1 [L] | 64 (≈ 108 µM) | 32 (≈ 54.1 µM) | 8 (≈ 13.5 µM) | 64 (≈ 108 µM) | >151.25 µM | >151.25 µM | 1 (≈ 1.69 µM) | 0.06 (≈ 0.101 µM) | 0.06 (≈ 0.101 µM) | > 15.1 | > 15.1
